Experiments:
Type in all cases: functional
HeLa [1] = assay: Induction of apoptosis in human HeLa cells assessed as viable cells at 26.1 uM incubated for 48 hrs by annexinV-FITC/propidium iodide staining based flow cytometry analysis (reference value: 99.8%); conditions: read-out: Activity
HeLa [2] = assay: Induction of apoptosis in human HeLa cells assessed as late apoptotic cells at 13.2 uM incubated for 48 hrs by annexinV-FITC/propidium iodide staining based flow cytometry analysis (reference value: 0.1%)
HeLa [3] = assay: Induction of cell cycle arrest in human HeLa cells assessed as 2N cells at 12.3 uM incubated for 24 hrs by RNAse A/PI staining based flow cytometric analysis (reference value: 29.9%)
HeLa [4] = assay: Induction of cell cycle arrest in human HeLa cells assessed as 2N cells at 6.2 uM incubated for 48 hrs by RNAse A/PI staining based flow cytometric analysis (reference value: 29.9%)
HeLa [5] = assay: Induction of cell cycle arrest in human HeLa cells assessed as S phase cells at 12.3 uM incubated for 48 hrs by RNAse A/PI staining based flow cytometric analysis (reference value: 20.5%)
HeLa [6] = assay: Induction of cell cycle arrest in human HeLa cells assessed as 4N cells at 12.3 uM incubated for 48 hrs by RNAse A/PI staining based flow cytometric analysis (reference value: 5.37%)
HeLa [7] = assay: Induction of cell cycle arrest in human HeLa cells assessed as 2N cells at 24.6 uM incubated for 48 hrs by RNAse A/PI staining based flow cytometric analysis (reference value: 29.9%)
HeLa [8] = assay: Induction of cell cycle arrest in human HeLa cells assessed as S phase cells at 24.6 uM incubated for 48 hrs by RNAse A/PI staining based flow cytometric analysis (reference value: 20.5%)
HeLa [9] = assay: Induction of cell cycle arrest in human HeLa cells assessed as 4N cells at 24.6 uM incubated for 48 hrs by RNAse A/PI staining based flow cytometric analysis (reference value: 5.37%)
HeLa [10] = assay: Induction of cell cycle arrest in human HeLa cells assessed as accumulation at G2/M phase at 12.3 uM by RNAse A/PI staining based flow cytometric analysis relative to control
HeLa [11] = assay: Induction of mitochondrial membrane potential loss in human HeLa cells assessed as decrease in fluorescence intensity […] at 12.3 uM by Rhodamine 123 staining based flow cytometric analysis (reference value: 58.0%); parameters: scale not given: the % may be the effect or the level left

## CC[C@H](C)[C@@H]1NC(=O)[C@H](CC(C)C)NC(=O)[C@@H]2CSCN2C(=O)[C@@H]2CSCN2C(=O)CN2C(=O)c3ccccc3[C@@]2(O)CN(Cc2ccccc2)C1=O
HeLa [1]
  viability at 26.1 µM: 58%
HeLa [2]
  Activity: 7.3%
HeLa [3]
  Activity: 20.6%
HeLa [4]
  Activity: 24.9%
HeLa [5]
  Activity: 21.3%
HeLa [6]
  Activity: 35.7%
HeLa [7]
  Activity: 28.8%
HeLa [8]
  Activity: 5.72%
HeLa [9]
  Activity: 47.5%
HeLa [10]
  Activity: 35.7%
HeLa [11]
  Activity: 32.3%

From ChEMBL document CHEMBL5120939, “Novel Isoindolinone-Based Analogs of the Natural Cyclic Peptide Fenestin A: Synthesis and Antitumor Activity” (ACS Med Chem Lett, 2022)
